Experimental findings from patent US20160318866A1, “SUBSTITUTED BIPIPERIDINYL DERIVATIVES” (Bayer Pharma Aktiengesellschaft, priority 2013, published 2016) are described below.

Counter-ions that a name gives are not always drawn.

As a reminder, the IC50 is the concentration needed to halve the response being measured.

For this experiment, the target named is T1, human α2C receptor (Homo sapiens, UniProt P18825).
T1 construct: expressed in transfected cells; host or cells: CHO cells, also recombinantly expressing chimeric G protein Gαqi3 and mitochondrial obelin (mtOb)
T1 sequence (P18825 1-462): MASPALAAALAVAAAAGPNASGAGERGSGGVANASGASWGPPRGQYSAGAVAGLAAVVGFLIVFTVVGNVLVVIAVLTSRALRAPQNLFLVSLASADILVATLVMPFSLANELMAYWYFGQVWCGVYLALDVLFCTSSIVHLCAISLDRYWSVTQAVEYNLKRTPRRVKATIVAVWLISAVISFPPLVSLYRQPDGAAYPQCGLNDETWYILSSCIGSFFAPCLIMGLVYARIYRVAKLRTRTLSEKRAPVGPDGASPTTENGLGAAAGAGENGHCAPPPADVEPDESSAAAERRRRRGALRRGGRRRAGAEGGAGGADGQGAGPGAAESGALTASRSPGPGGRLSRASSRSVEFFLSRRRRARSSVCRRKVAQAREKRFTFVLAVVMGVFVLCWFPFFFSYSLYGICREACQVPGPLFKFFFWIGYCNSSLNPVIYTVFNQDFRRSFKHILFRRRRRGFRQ
Put plainly: Antagonism against the adrenoreceptor α2C (luminescence, recombinant CHO cell line). It is filed as cell-based. The following applies: antagonism against adrenoreceptor α2C; noradrenaline 20 nM; tested up to 10 μM; read-out: IC50. On the procedure:
Antagonism against the adrenoreceptor α1A was tested using a recombinant human α1A receptor CHO cell line which additionally also recombinantly expresses mtAeq (mitochondrial aequorin). Antagonism against the adrenoreceptor α2A was tested using a recombinant human α2A-Gα16 receptor fusion protein CHO cell line (PerkinElmer Life Sciences) which additionally also recombinantly expresses mtAeq. Antagonism against the adrenoreceptor α2B was tested using a recombinant human α2B receptor CHO cell line (PerkinElmer Life Sciences) which additionally also recombinantly expresses mtAeq. Antagonism against the adrenoreceptor α2C was tested using a recombinant human α2C receptor CHO cell line which additionally also recombinantly expresses a chimaric G protein (Gαqi3) and mtOb (mitochondrial obelin).
The cells were cultivated at 37° C. and 5% CO2 in Dulbecco's modified Eagle's Medium/NUT mix F12 with L-glutamine which additionally contains 10% (v/v) inactivated foetal calf serum, 1 mM sodium pyruvate, 0.9 mM sodium bicarbonate, 50 U/ml penicillin, 50 μg/ml streptomycin, 2.5 μg/ml amphotericin B and 1 mg/ml Geneticin. The cells were passaged with enzyme-free Hank's-based cell dissociation buffer. All cell culture reagents used are from Invitrogen (Carlsbad, USA).
Luminescence measurements were carried out on white 384-well microtitre plates. 2000 cells/well were plated in a volume of 25 μl and cultivated for one day at 30° C. and 5% CO2 in cell culture medium with coelenterazine (α2A and α2B: 5 μg/ml; α1a/c and α2C: 2.5 μg/ml). Serial dilutions of the test substances (10 μl) were added to the cells. After 5 minutes, noradrenalinee was added to the cells (35 μl; final concentrations: 20 nM (α1a/c and α2C) or 200 nM (α2A and α2B)), and the emitted light was measured for 50 seconds using a CCD (charge-coupled device) camera (Hamamatsu Corporation, Shizuoka, Japan) in a light-tight box. The test substances were tested up to a maximum concentration of 10 μM. The IC50 values were calculated from the appropriate dose-response curves.
For `COCCNC(=O)c1ccc(C(=O)N2CCC(N3CCCC(C)C3)CC2)cc1` (stereo not shown) [Example 36, N-(2-Methoxyethyl)-4-[(3-methyl-1,4′-bipiperidin-1′-yl)carbonyl]benzamide], the IC50 worked out at 479 nM. As to `C[C@@H]1CCCN(C2CCN(C(=O)c3ccc(C(C)(C)O)c(Cl)c3)CC2)C1` [Example 99, [3-Chloro-4-(2-hydroxypropan-2-yl)phenyl][(3R)-3-methyl-1,4′-bipiperidin-1′-yl]methanone], the IC50 amounted to 84 nM.

`CC1CCCN(C2CCN(C(=O)c3ccc(C(=O)NC(C)(C)C)cc3)CC2)C1` (stereo not shown) [Example 38, 1-{1-[4-(tert-Butylcarbamoyl)benzoyl]piperidin-4-yl}-3-methylpiperidine trifluoroacetic acid salt]: the IC50 turned out to be 139 nM. `C[C@@H]1CN(C2CCN(C(=O)c3ccc(C(C)(C)C)cc3)CC2)CC[C@@H]1C` (relative stereo) [Example 20, cis-1-[1-(4-tert-Butylbenzoyl)piperidin-4-yl]-3,4-dimethylpiperidine trifluoroacetic acid salt]: the IC50 was found to be 117 nM. `CC1CCCN(C2CCN(C(=O)c3ccc(C(=O)NC(C)(C)c4ccc(Cl)c(Cl)c4)cc3)CC2)C1` (stereo not shown) [Example 73, N-[2-(3,4-Dichlorophenyl)propan-2-yl]-4-[(3-methyl-1,4′-bipiperidin-1′-yl)carbonyl]benzamide trifluoroacetic acid salt]: the IC50 was determined as 80 nM.

As to `CC(C)(O)c1ccc(C(=O)N2CCC(N3CCCC(c4nc(CC5CCC5)n[nH]4)C3)CC2)cc1` (stereo not shown) [Example 69, {3-[5-(Cyclobutylmethyl)-4H-1,2,4-triazol-3-yl]-1,4′-bipiperidin-1′-yl}[4-(2-hydroxypropan-2-yl)phenyl]methanone], the IC50 worked out at 25 nM. In the case of `Cc1noc(C)c1NC(=O)c1ccc(C(=O)N2CCC(N3CCCC(C)C3)CC2)cc1` (stereo not shown) [Example 56, N-(3,5-dimethyl-1,2-oxazol-4-yl)-4-[(3-methyl-1,4′-bipiperidin-1′-yl)carbonyl]benzamide], the IC50 stood at 35 nM. Turning to `CC1CCCN(C2CCN(C(=O)c3ccc(C(=O)NC(C)(C)c4cc(Cl)cc(Cl)c4)cc3)CC2)C1` (stereo not shown) [Example 80, N-[2-(3,5-Dichlorophenyl)propan-2-yl]-4-[(3-methyl-1,4′-bipiperidin-1′-yl)carbonyl]benzamide trifluoroacetic acid salt], the IC50 was 150 nM. Take `CCN(CCOC)C(=O)c1ccc(C(=O)N2CCC(N3CCCC(C)C3)CC2)cc1` (stereo not shown) [Example 37, 1-(1-{4-[Ethyl-(2-methoxyethyl)carbamoyl]benzoyl}piperidin-4-yl)-3-methylpiperidine trifluoroacetic acid salt]: the IC50 amounted to 406 nM. As for `C[C@@H]1CCCN(C2CCN(C(=O)c3ccc(C(=O)NCc4ncc(F)cc4F)cc3)CC2)C1` [Example 82, (R)—N-[(3,5-Difluoropyridin-2-yl)methyl]-4-{[(3R)-3-methyl-1,4′-bipiperidin-1′-yl]carbonyl}benzamide trifluoroacetic acid salt], the IC50 came out at 15 nM. `CC(C)(O)c1ccc(C(=O)N2CCC(N3CCCC(COc4cccc(F)c4)C3)CC2)cc1` (stereo not shown) [Example 108, {3-[(3-Fluorophenoxy)methyl]-1,4′-bipiperidin-1′-yl}[4-(2-hydroxypropan-2-yl)phenyl]methanone]: the IC50 came out at 112 nM. As to `CCOC(=O)C(C)(C)c1ccc(C(=O)N2CCC(N3CCCC(C)C3)CC2)cc1` (stereo not shown) [Example 27, 1-{1-[4-(1-Ethoxy-2-methyl-1-oxopropan-2-yl)benzoyl]piperidin-4-yl}-3-methylpiperidine trifluoroacetic acid salt], the IC50 is 162 nM. For the molecule `CC(C)(O)c1ccc(C(=O)N2CCC(N3CCCC(OCCOC(F)(F)F)C3)CC2)cc1` (stereo not shown) [Example 127, [4-(2-Hydroxypropan-2-yl)phenyl]{3-[2-(trifluoromethoxy)ethoxy]-1,4′-bipiperidin-1′-yl}methanone], the IC50 came out at 154 nM.

As to `C[C@@H]1CCCN(C2CCN(C(=O)c3ccc(C(=O)NCc4cccnc4Cl)cc3)CC2)C1` [Example 83, (R)—N-[(2-Chloropyridin-3-yl)methyl]-4-{[(3R)-3-methyl-1,4′-bipiperidin-1′-yl]carbonyl}benzamide trifluoroacetic acid salt], the 50% inhibitory concentration (IC50) turned out to be 7 nM. In the case of `CCOCc1ccc(C(=O)N2CCC(N3CCCC(C)C3)CC2)cc1` (stereo not shown) [Example 13, [4-(Ethoxymethyl)phenyl](3-methyl-1,4′-bipiperidin-1′-yl)methanone], the IC50 came to 267 nM. With `COc1ccccc1OCc1ccc(C(=O)N2CCC(N3CCCC(C)C3)CC2)cc1` (stereo not shown) [Example 10, {4-[(2-Methoxyphenoxy)methyl]phenyl}[3-methyl-1,4′-bipiperidin-1′-yl]methanone] the figure was 96 nM; with `CC1CCCN(C2CCN(C(=O)c3ccc(C4(CN(C)C=O)CCC4)cc3)CC2)C1` (stereo not shown) [Example 67, N-Methyl-N-[(1-{4-[(3-methyl-1,4′-bipiperidin-1′-yl)carbonyl]phenyl}cyclobutyl)methyl]formamide trifluoroacetic acid salt], 51 nM; with `C[C@@H]1CCCN(C2CCN(C(=O)c3ccc(C(=O)NCc4ncc(Cl)cc4C(F)(F)F)cc3)CC2)C1` [Example 91, N-{[5-Chloro-3-(trifluoromethyl)pyridin-2-yl]methyl}-4-{[(3R)-3-methyl-1,4′-bipiperidin-1′-yl]carbonyl}benzamide], 13 nM.

Turning to `COCC1CCCN(C2CCN(C(=O)c3ccc(C(C)(C)C)cc3)CC2)C1` (stereo not shown) [Example 19, (4-tert-Butylphenyl)[3-(methoxymethyl)-1,4′-bipiperidin-1′-yl]methanone], the IC50 turned out to be 8 nM. Turning to `CCOCC1CCCN(C2CCN(C(=O)c3ccc(C(C)(C)O)cc3)CC2)C1` (stereo not shown) [Example 120, [3-(Ethoxymethyl)-1,4′-bipiperidin-1′-yl][4-(2-hydroxypropan-2-yl)phenyl]methanone], the IC50 came to 10 nM. For `CC1CCCN(C2CCN(C(=O)c3ccc(-c4cnco4)cc3)CC2)C1` (stereo not shown) [Example 39, (3-Methyl-1,4′-bipiperidin-1′-yl) [4-(1,3-oxazol-5-yl)phenyl]methanone], the IC50 turned out to be 244 nM. With `CC(C)(C)c1ccc(C(=O)N2CCC(N3CCCC(OC(=O)N4CCCC4)C3)CC2)cc1` (stereo not shown) [Example 40, 1′-(4-tert-Butylbenzoyl)-1,4′-bipiperidin-3-yl-pyrrolidin-1-carboxylate trifluoroacetic acid salt] the figure was 127 nM; with `C[C@@H]1CCCN(C2CCN(C(=O)c3ccc(C(C)(C)O)c(F)c3)CC2)C1` [Example 113, [3-Fluoro-4-(2-hydroxypropan-2-yl)phenyl][(3R)-3-methyl-1,4′-bipiperidin-1′-yl]methanone], 33 nM. With `CC1CCCN(C2CCN(C(=O)c3ccc(C4(CO)CC4)cc3)CC2)C1` (stereo not shown) [Example 31, 1-(1-{4-[1-(Hydroxymethyl)cyclopropyl]benzoyl}piperidin-4-yl)-3-methylpiperidine trifluoroacetic acid salt], the IC50 turned out to be 403 nM. As for `COCC1CCCN(C2CCN(C(=O)c3ccc(C(=O)Nc4c(C)noc4C)cc3)CC2)C1` (stereo not shown) [Example 105, N-(3,5-Dimethyl-1,2-oxazol-4-yl)-4-{[3-(methoxymethyl)-1,4′-bipiperidin-1′-yl]carbonyl}benzamide], the IC50 came to 10 nM. On to `CCOC(=O)C1CCCN(C2CCN(C(=O)c3ccc(C(C)(C)C(=O)OCC)cc3)CC2)C1` (stereo not shown) [Example 29, 3-(Ethoxycarbonyl)-1-{1-[4-(1-ethoxy-2-methyl-1-oxopropan-2-yl)benzoyl]piperidin-4-yl}piperidine trifluoroacetic acid salt], for which the IC50 came to 29 nM.

`CC1CCCN(C2CCN(C(=O)c3ccc(C(C)(C)C)cc3O)CC2)C1` (stereo not shown) [Example 12, (2-Hydroxy-4-tert-butylphenyl)(3-methyl-1,4′-bipiperidin-1′-yl)methanone]: the IC50 was found to be 87 nM. With `Cc1n[nH]c(C2CCCN(C3CCN(C(=O)c4ccc(C(C)(C)O)cc4)CC3)C2)n1` (stereo not shown) [Example 63, [4-(2-Hydroxypropan-2-yl)phenyl][3-(3-methyl-1H-1,2,4-triazol-5-yl)-1,4′-bipiperidin-1′-yl]methanone], the IC50 is 128 nM.
